Measured values as given in ChEMBL document CHEMBL1131977, “Synthesis and in vitro activity of new oxazolidinone antibacterial agents having substituted isoxazoles” (1999).
Converted amounts (≈) assume the structure as drawn.

Experiments:
Type in all cases: functional
Enterococcus faecium [1] = assay: In vitro antibacterial activity against Enterococcus faecium C6301 (E.f.2).
Streptococcus pyogenes [2] = assay: In vitro antibacterial activity against Streptococcus pyogenes ATCC 8668 (S.p.1).
Staphylococcus aureus [3] = assay: In vitro antibacterial activity against ciprofloxacin-resistant Staphylococcus aureus (CRSA) C6043.
Staphylococcus aureus [4] = assay: In vitro antibacterial activity against Staphylococcus aureus (S. a.) ATCC 29213.
Staphylococcus aureus [5] = assay: In vitro antibacterial activity against methicillin-susceptible Staphylococcus aureus (MSSA) C2214.
Streptococcus pyogenes [6] = assay: In vitro antibacterial activity against Streptococcus pyogenes C6003 (S.p.2).
[7] = system: Staphylococcus epidermidis; assay: In vitro antibacterial activity against Staphylococcus epidermis (S.e.2) C2235.
Enterococcus faecium [8] = assay: In vitro antibacterial activity against vancomycin-resistant Enterococcus faecium C6487 (VRE).
[9] = system: Staphylococcus epidermidis; assay: In vitro antibacterial activity against Staphylococcus epidermis (S.e.1) […].
Staphylococcus aureus [10] = assay: In vitro antibacterial activity against methicillin-resistant Staphylococcus aureus (MRSA) C6068.
Enterococcus faecalis = assay: In vitro antibacterial activity against Enterococcus faecalis C6291 (E.f.1).

Compound	MIC (Enterococcus faecium [1]) [mg/L]	MIC (Streptococcus pyogenes [2]) [mg/L]	MIC (Staphylococcus aureus [3]) [mg/L]	MIC (Staphylococcus aureus [4]) [mg/L]	MIC (Staphylococcus aureus [5]) [mg/L]	MIC (Streptococcus pyogenes [6]) [mg/L]	MIC [7] [mg/L]	MIC (Enterococcus faecium [8]) [mg/L]	MIC [9] [mg/L]	MIC (Staphylococcus aureus [10]) [mg/L]	MIC (Enterococcus faecalis) [mg/L]
CC(=O)NC[C@H]1CN(c2ccc(N3CCN(C(=O)c4cccs4)CC3)c(F)c2)C(=O)O1	2 (≈ 4.48 µM)	1 (≈ 2.24 µM)	2 (≈ 4.48 µM)	2 (≈ 4.48 µM)	2 (≈ 4.48 µM)	1 (≈ 2.24 µM)	1 (≈ 2.24 µM)	2 (≈ 4.48 µM)	0.5 (≈ 1.12 µM)	1 (≈ 2.24 µM)	2 (≈ 4.48 µM)
CC(=O)NC[C@H]1CN(c2ccc(N3CCN(Cc4cc(-c5ccc(C#N)cc5)no4)CC3)c(F)c2)C(=O)O1	16 (≈ 30.9 µM)	2 (≈ 3.86 µM)	16 (≈ 30.9 µM)	16 (≈ 30.9 µM)	16 (≈ 30.9 µM)	2 (≈ 3.86 µM)	8 (≈ 15.4 µM)	8 (≈ 15.4 µM)	4 (≈ 7.71 µM)	8 (≈ 15.4 µM)	16 (≈ 30.9 µM)
CC(=O)NC[C@H]1CN(c2ccc(N3CCN(C(=O)c4nccs4)CC3)c(F)c2)C(=O)O1	4 (≈ 8.94 µM)	1 (≈ 2.23 µM)	4 (≈ 8.94 µM)	4 (≈ 8.94 µM)	4 (≈ 8.94 µM)	1 (≈ 2.23 µM)	2 (≈ 4.47 µM)	4 (≈ 8.94 µM)	1 (≈ 2.23 µM)	2 (≈ 4.47 µM)	4 (≈ 8.94 µM)
CC(=O)NC[C@H]1CN(c2ccc(N3CCN(C(=O)c4cc(C(=O)N(C)C)no4)CC3)c(F)c2)C(=O)O1	4 (≈ 7.96 µM)	1 (≈ 1.99 µM)	8 (≈ 15.9 µM)	8 (≈ 15.9 µM)	8 (≈ 15.9 µM)	1 (≈ 1.99 µM)	2 (≈ 3.98 µM)	4 (≈ 7.96 µM)	2 (≈ 3.98 µM)	2 (≈ 3.98 µM)	4 (≈ 7.96 µM)
CC(=O)NC[C@H]1CN(c2ccc(N3CCN(Cc4cc(C)no4)CC3)c(F)c2)C(=O)O1	16 (≈ 37.1 µM)	16 (≈ 37.1 µM)	16 (≈ 37.1 µM)	16 (≈ 37.1 µM)	16 (≈ 37.1 µM)	16 (≈ 37.1 µM)	16 (≈ 37.1 µM)	16 (≈ 37.1 µM)	16 (≈ 37.1 µM)	16 (≈ 37.1 µM)	16 (≈ 37.1 µM)
CC(=O)NC[C@H]1CN(c2ccc(N3CCN(C(=O)c4cc(Br)no4)CC3)c(F)c2)C(=O)O1	4 (≈ 7.84 µM)	1 (≈ 1.96 µM)	2 (≈ 3.92 µM)	4 (≈ 7.84 µM)	2 (≈ 3.92 µM)	1 (≈ 1.96 µM)	2 (≈ 3.92 µM)	2 (≈ 3.92 µM)	1 (≈ 1.96 µM)	1 (≈ 1.96 µM)	2 (≈ 3.92 µM)
CC(=O)NC[C@H]1CN(c2ccc(N3CCN(C(=O)c4cc(C(=O)O)no4)CC3)c(F)c2)C(=O)O1	> 32	16 (≈ 33.7 µM)		> 32	> 32	16 (≈ 33.7 µM)	> 32		> 32		> 32
CC(=O)NC[C@H]1CN(c2ccc(N3CCN(Cc4cc(-c5ccccn5)no4)CC3)c(F)c2)C(=O)O1	2 (≈ 4.04 µM)	0.5 (≈ 1.01 µM)	2 (≈ 4.04 µM)	2 (≈ 4.04 µM)	4 (≈ 8.09 µM)	0.5 (≈ 1.01 µM)	1 (≈ 2.02 µM)	2 (≈ 4.04 µM)	1 (≈ 2.02 µM)	2 (≈ 4.04 µM)	2 (≈ 4.04 µM)
CC(=O)NC[C@H]1CN(c2ccc(N3CCN(Cc4cc(/C=C/c5ccccc5)no4)CC3)c(F)c2)C(=O)O1	8 (≈ 15.4 µM)	2 (≈ 3.85 µM)		> 32	> 32	2 (≈ 3.85 µM)	16 (≈ 30.8 µM)	8 (≈ 15.4 µM)	2 (≈ 3.85 µM)	32 (≈ 61.6 µM)	16 (≈ 30.8 µM)
CC(=O)NC[C@H]1CN(c2ccc(N3CCN(C(=O)c4cc(C(N)=O)no4)CC3)c(F)c2)C(=O)O1	1 (≈ 2.11 µM)	0.25 (≈ 0.527 µM)	2 (≈ 4.22 µM)	2 (≈ 4.22 µM)	2 (≈ 4.22 µM)	0.25 (≈ 0.527 µM)	0.5 (≈ 1.05 µM)	1 (≈ 2.11 µM)	0.5 (≈ 1.05 µM)	1 (≈ 2.11 µM)	1 (≈ 2.11 µM)
CC(=O)NC[C@H]1CN(c2ccc(N3CCN(Cc4cc(-c5ccc(C)cc5)no4)CC3)c(F)c2)C(=O)O1	8 (≈ 15.8 µM)	4 (≈ 7.88 µM)	32 (≈ 63 µM)	32 (≈ 63 µM)	32 (≈ 63 µM)	4 (≈ 7.88 µM)	8 (≈ 15.8 µM)	8 (≈ 15.8 µM)	4 (≈ 7.88 µM)	8 (≈ 15.8 µM)	16 (≈ 31.5 µM)
CC(=O)NC[C@H]1CN(c2ccc(N3CCN(C(=O)c4cc(O)no4)CC3)c(F)c2)C(=O)O1	> 32	16 (≈ 35.8 µM)		> 32	> 32	16 (≈ 35.8 µM)	> 32		> 32		> 32
CC(=O)NC[C@H]1CN(c2ccc(N3CCN(C(=O)c4cc(OCCF)no4)CC3)c(F)c2)C(=O)O1	1 (≈ 2.03 µM)	0.5 (≈ 1.01 µM)	2 (≈ 4.05 µM)	4 (≈ 8.11 µM)	2 (≈ 4.05 µM)	0.5 (≈ 1.01 µM)	2 (≈ 4.05 µM)	1 (≈ 2.03 µM)	1 (≈ 2.03 µM)	2 (≈ 4.05 µM)	2 (≈ 4.05 µM)
CC(=O)NC[C@H]1CN(c2ccc(N3CCOCC3)c(F)c2)C(=O)O1 [LINEZOLID]	1 (≈ 2.96 µM)	0.5 (≈ 1.48 µM)				0.5 (≈ 1.48 µM)	1 (≈ 2.96 µM)	2 (≈ 5.93 µM)	1 (≈ 2.96 µM)	1 (≈ 2.96 µM)	
CN[C@H](CC(C)C)C(=O)N[C@H]1C(=O)N[C@@H](CC(N)=O)C(=O)N[C@H]2C(=O)N[C@H]3C(=O)N[C@H](C(=O)N[C@H](C(=O)O)c4cc(O)cc(O)c4-c4cc3ccc4O)[C@H](O)c3ccc(c(Cl)c3)Oc3cc2cc(c3O[C@@H]2O[C@H](CO)[C@@H](O)[C@H](O)[C@H]2O[C@H]2C[C@](C)(N)[C@H](O)[C@H](C)O2)Oc2ccc(cc2Cl)[C@H]1O [VANCOMYCIN]		0.25 (≈ 0.173 µM)				0.25 (≈ 0.173 µM)		> 32	0.5 (≈ 0.345 µM)		1 (≈ 0.69 µM)
